Test results published in US11779560B2 (priority 2020, dated 2023).

How the values were obtained:
Conditions in all cases: 10-100 μM concentrations
[1] = system: mitochondrial electron transport chain and ATP synthase (Complex I-V); assay: MitoCheck Complex I-V activity assays in isolated mitochondria; format: biochemical, bovine
Description: MitoCheck Complex I-V activity assays were conducted in an Agilent Seahorse XFe96 analyzer to determine the effects of compounds on the mitochondrial electron transport chain and ATP synthase in isolated mitochondria. Compounds were screened in a dose dependent manner using 10-point ½ log dilutions in quadruplicate along with a […] for each of the five complexes.
Complex I activity was determined using an assay that measures the rotenone-sensitive rate of NADH oxidation by complex I in isolated bovine heart mitochondria. To prevent oxidation of ubiquinol by complex III, KCN (1 mM) was present to inhibit the downstream electron transport chain. […]
Complex II activity was determined using an assay that measures the succinate dependent rate of DCPIP reduction in isolated bovine heart mitochondria. […]
Complex III activity was determined using an assay measures the rate of cytochrome c reduction by the passage of electrons from complex II to complex III via ubiquinone in isolated bovine heart mitochondria. […]
Complex IV activity was determined using an assay that measures the rate of cytochromec oxidation by complex IV in isolated bovine heart mitochondria. […]
Complex V activity was determined using an assay that measures the rate of […] resulting from a series of coupled reactions linked to the hydrolysis of ATP by complex V in isolated bovine heart mitochondria. […]

[2] = system: HMEC-1 human dermal endothelial cells; assay: Mitochondrial stress test (Agilent Seahorse XFe96); format: cell-based
Description: A mitochondrial stress test was also conducted to determine the effects of the experimental compounds on cellular mitochondria. Assays were conducted using HMEC-1 human dermal endothelial cells optimized for use with the Agilent Seahorse XFe96 analyzer. HMEC-1 cells were obtained from ATCC and cultured in accordance with the supplier's guidelines: complete cell culture media consisted of MCD 131 supplemented with 10 ng/ml EGF 1 μg/ml hydrocortisone, 10 mM glutamine, 10% FBS, and 1% penicillin/streptomycin. To determine optimal cell seeding densities, cells were seeded in Agilent XF96 cell culture microplates at 80,000 cells/well at the highest concentration. […] Cell viability was assessed using trypan blue exclusion. […] (non-CO2) for 1 hour and imaged with a Cytation 5 imaging multimode plate reader (BioTek instruments) and analyzed using Prism 9.0 (GraphPad Software.) The stress test profile cycled through 18 minute exposures to oligomycin 1 μg/ml, FCCP 2 μM and antimycin A 10 μM/rotenone 1 μM. At the completion of the mitochondrial stress test, cells were imaged and Hoechst positive nuclei were quantified using the Seahorse Cell Analysis software. All data were analyzed using Wave Analysis software (version 2.6.1.53) and Prism 9.0 (GraphPad software). […]

[3] = system: HMEC-1 human dermal endothelial cells; assay: Cell TiterGlo ATP Luminescent Cell Viability assay (total cellular ATP); format: cell-based
Description: The Cell TiterGlo ATP Luminescent Cell Viability assay (Promega Cat. #G7571) was run to measure total cellular ATP in response to compound treatment. Assays were performed using HMEC-1 human dermal endothelial cells. Compounds were screened using 8-point ½ log dilutions in duplicate in the presence of vehicle.

O=C(CO)NCCCN[C@@H]1CO[C@H]2[C@@H]1OC[C@@H]2O[N+](=O)[O-] [CR-0305, (3S,3aS,6R,6aR)-6-((3-(2-hydroxyacetamido)propyl)amino)hexahydrofuro[3,2-b]furan-3-yl nitrate]
No significant toxicity: Toxicity, MitoCheck Complex I-V activity [1] | Toxicity, mitochondrial stress test [2] | Toxicity, effect of drug on ATP synthesis [3]
